Common to all, as to assay: DTP human tumour cell line panel, 48 h
For test [1], the system named is RXF 631.
For test [2], the system named is M19-MEL.
Test [3] concerns KM-20L2.
The test system of test [4] is DLD-1.
The test system of test [5] is HOP-18.
Test [6] concerns XF498.
The test system of test [7] is DMS-273.
Test [8] has as its system DMS-114.
The subject of test [9] is SNB-78.

What is called GI50 is the concentration giving 50% growth inhibition.

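Assay format: 96-well plates, 48-hour exposure. Abbreviation: GI50, concentration required for 50% inhibition of growth.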 Activity calls are given as the source filed them. Cut-off read from the data, not from the text of the source: active = GI50 up to about 1.1 µM and inactive = higher.

With `O=C(O)C12C3CCC(C3)C1(C(=O)O)C1CCC2C1` (centres undefined), the GI50 in test [1] is > 100 µM (inactive); in test [2], 92.5 µM (inactive); in test [3] it was > 100 µM (inactive); in [4], 24.7 µM (inactive); in test [5] it was > 100 µM (inactive); in test [6], > 100 µM (inactive). The GI50 in test [7] was > 100 µM (inactive); in [8], 33.9 µM (inactive); in [9], > 100 µM (inactive).
With `COc1cc(C2(C)SCCCS2)cc(OC)c1OC`, the GI50 in [1], in test [2], in test [3], in test [4], in test [5] and in test [7] was > 100 µM (inactive) throughout. Further, the GI50 in test [8] is > 100 µM (inactive).
`COc1cc2ccnc3c2c(c1OC)CC1CC(O)C(OC)CC31` (centres undefined): the GI50 in test [2] was 96.2 µM (inactive); in test [3] it was 43.2 µM (inactive); in [4], 95.3 µM (inactive); in test [5], 21.8 µM (inactive); in test [6], 44.7 µM (inactive); in test [7], 34 µM (inactive). Moreover, the figures for the GI50 in [8] and in test [9] were 44.5 µM (inactive) and > 100 µM (inactive), respectively.
Turning to `Cc1ccc2[nH]c3c4c5ccccc5nc-4c[nH]c3c2c1`, the GI50 in test [3] is 15.1 µM (inactive); in [4], 15.5 µM (inactive); in test [5], 14.9 µM (inactive); in test [6] it was 21.4 µM (inactive); in test [8] it was 16.1 µM (inactive); in test [9], 17 µM (inactive).
For `COC(=O)C1=Cc2cc(OC)c(OC)cc2[C@H](c2ccc(OC)c(OC)c2)C1C(=O)OC` (some centres undefined), the GI50 in test [2], in test [3], in [6], in test [7], in [8] and in test [9] was > 100 µM (inactive) in each case.
Take `O=C1C(Br)=C(Br)C(=O)c2ccc(=O)ccc21`: the GI50 is 18.7 µM (inactive) in test [1]; 17.2 µM (inactive) in test [2]; > 100 µM (inactive) in [3]; 22.3 µM (inactive) in [4]; 24.2 µM (inactive) in test [5]; 24 µM (inactive) in [6]. In addition, the GI50 was 48 µM (inactive) in test [7], 20.4 µM (inactive) in test [8] and 29.3 µM (inactive) in [9].
On to `CCCOc1ccc(/C=C/c2cc(OC)c(OC)c(OC)c2)cc1`, for which the GI50 in [1] was 2.03 µM (inactive); in [2], 0.682 µM (active); in [3], 0.2 µM (active); in test [4], 0.386 µM (active); in [5], > 100 µM (inactive); in test [6] it was 0.56 µM (active). Besides, the GI50 is 0.147 µM (active) in [7], 0.347 µM (active) in test [8] and 1.29 µM (inactive) in [9].
With `CN(C)NC(=O)/C(=C/c1ccc(Cl)cc1)NC(=O)c1ccccc1`, the GI50 in test [1] is 55.3 µM (inactive); in [2] it was > 100 µM (inactive); in [3], > 100 µM (inactive); in test [4] it was 44.9 µM (inactive); in test [5], > 100 µM (inactive); in test [6], > 100 µM (inactive). Besides, the GI50 in test [7] is 29.4 µM (inactive).
As to `Oc1ccc(-c2n[nH]c(S)n2)cc1`, the GI50 in [2], in test [3], in test [4], in test [5], in test [6] and in test [7] was > 100 µM (inactive) in each case. In addition, the GI50 in [8] and in [9] was > 100 µM (inactive) in each case.
On to `Cc1ccc(/C=C(\NC(=O)c2ccccc2)c2nc3ccccc3[nH]2)cc1`, for which the GI50 in [2] is 46.5 µM (inactive); in test [3] it was 47.1 µM (inactive); in test [4], 56.8 µM (inactive); in [5], > 100 µM (inactive); in test [8], 27.6 µM (inactive).
With `NCCCC(N/C=C1/N=C(c2ccccc2)OC1=O)C(=O)O` (centres undefined), the GI50 is > 100 µM (inactive) in test [2]; > 100 µM (inactive) in [3]; 65.8 µM (inactive) in test [4]; > 100 µM (inactive) in test [6]; > 100 µM (inactive) in test [7]; > 100 µM (inactive) in [8]. The GI50 in [9] was > 100 µM (inactive).
Consider `O=C(c1ccco1)N(C(=S)N1CCN(c2ccccc2)CC1)c1ccccc1`, for which the GI50 in [2], in test [3], in test [4], in [5], in test [7] and in test [8] was > 100 µM (inactive) each time. Also, the GI50 in test [9] was > 100 µM (inactive).
In the case of `CCOC(=O)C(=O)Nc1ccc([N+](=O)[O-])cc1C#N`, the GI50 in [1], in test [2], in [4], in [5], in test [6] and in [8] was > 100 µM (inactive) each time.
As to `c1ccc2c(c1)nnn2CNc1ccc(N2CCCCC2)cc1`, the GI50 in [3], in test [4], in test [5], in test [6], in test [7] and in test [8] was > 100 µM (inactive) in each case. Also, the GI50 in [9] is > 100 µM (inactive).
As to `Cc1cccc(N2C(=O)/C(=C/c3ccc(N(CCC#N)CCC#N)cc3C)N=C2c2cc([N+](=O)[O-])ccc2Cl)c1`, the GI50 in test [1] is > 100 µM (inactive); in test [2], > 100 µM (inactive); in test [4], > 100 µM (inactive); in test [5], > 100 µM (inactive); in test [7], > 100 µM (inactive); in test [8] it was 88.9 µM (inactive).
In the case of `COC(=O)c1cc2c3c(ccc2[nH]1)N(C(=O)c1cc2c4c(ccc2[nH]1)N(C(=O)c1cc2c5c(ccc2[nH]1)N(C(N)=O)CC5)CC4)CC3`, the GI50 in test [3] is > 63.8 µM (inactive); in test [4] it was > 21.1 µM (inactive); in test [5], > 100 µM (inactive); in test [7], 4.06 µM (inactive); in test [8], 3.7 µM (inactive); in [9] it was > 100 µM (inactive).
As for `COC(=O)C(C(=O)C(=O)Nc1ccc(C)cc1C)c1nc2ccc([N+](=O)[O-])cc2nc1O` (centres undefined), the GI50 in test [1], in test [2], in test [3], in [4], in [5] and in test [6] was > 100 µM (inactive) throughout. Also, the GI50 is 97.7 µM (inactive) in test [7], 33.4 µM (inactive) in [8] and > 100 µM (inactive) in test [9].
For the molecule `CCOP(=O)(OCC)/C(C#N)=C\c1cccc2ccccc12`, the GI50 in test [2] is > 100 µM (inactive); in test [3], > 100 µM (inactive); in test [9] it was 48.2 µM (inactive).
With `CNC(=O)NCNC(=O)NC`, the GI50 in [1], in test [2], in test [3], in [4], in test [5] and in test [7] was > 100 µM (inactive) in each case. The GI50 in test [8] and in test [9] was > 100 µM (inactive) throughout.
`Cc1cc(N(CCC#N)CCC#N)ccc1/C=C1\N=C(c2cc([N+](=O)[O-])ccc2Cl)N(NC(=O)c2ccc(/N=C\c3ccc(N(CCC#N)S(C)(=O)=O)cc3C)cc2)C1=O`: the GI50 is > 100 µM (inactive) in [1]; 73.1 µM (inactive) in test [2]; 58.2 µM (inactive) in [3]; 63.5 µM (inactive) in [4]; > 100 µM (inactive) in [5]; > 100 µM (inactive) in test [6]. For the same molecule, the GI50 in test [7] is 41.5 µM (inactive); in test [8], 85.5 µM (inactive); in test [9] it was > 100 µM (inactive).
For `O=C(/C=C/c1ccc(OCCSCCCCCCCCCCSCCOc2ccc(/C=C/C(=O)c3ccc(Cl)cc3)cc2)cc1)c1ccc(Cl)cc1`, the GI50 is > 66.1 µM (inactive) in test [1]; > 100 µM (inactive) in test [2]; > 100 µM (inactive) in test [3]; > 100 µM (inactive) in [4]; > 100 µM (inactive) in test [5]; > 100 µM (inactive) in test [7]. Further, the GI50 in [8] is > 100 µM (inactive); in test [9] it was 37.2 µM (inactive).
Turning to `CCO[C@]12C[C@H](OC)[C@@]3(O)CC(C1[C@H]3OCc1ccccc1)C13C4C2[C@H](OC)C1[C@](COC)(CN4CC)[C@H](O)C[C@@H]3OC` (some centres undefined), the GI50 in test [2], in test [3], in [4], in test [6], in [7] and in test [8] was > 100 µM (inactive) each time. Also, the GI50 in [9] is > 100 µM (inactive).
As for `CN1CC[C@]2(C)c3cc(O)ccc3CC3CCCC1C32C` (some centres undefined), the GI50 was > 100 µM (inactive) in test [1]; > 100 µM (inactive) in test [2]; > 100 µM (inactive) in test [3]; > 100 µM (inactive) in test [4]; 26.6 µM (inactive) in test [5]; > 100 µM (inactive) in test [6]. For the same molecule, the GI50 in [8] and in test [9] was > 100 µM (inactive) in each case.
Regarding `COC(=O)C1CC(C(=O)OC)c2nc3cc(C)ccc3nc21` (centres undefined), the GI50 was > 100 µM (inactive) in [1]; > 100 µM (inactive) in [2]; > 100 µM (inactive) in test [3]; > 100 µM (inactive) in test [4]; 51.4 µM (inactive) in test [5]; > 100 µM (inactive) in [6]. Moreover, the GI50 in [7], in [8] and in test [9] was > 100 µM (inactive) throughout.
